Data published in patent publication US5252718A, “Fibroblast growth factor antagonists” (The Salk Institute for Biological Studies, priority 1992, dated 1993).
Square brackets hold non-standard residues; d marks the D form. Ends that are not written are not given here. Peptide text beside a SMILES is read from it. Sar = CNCC(=O)O

Experiments:
[1] = tested on: BAAE cells; type: cell-based, bovine; settings: for reducing cell population, bFGF-stimulated endothelial cell growth / reducing cell population, basal endothelial cell growth: manner of Example II, concentration not given
Protocol: To determine the effectiveness of the bFGF fragment peptide to inhibit the growth of endothelial cells, the peptide is tested under conditions to measure its ability to modulate both basal cell growth and bFGF-simulated cell proliferation. A bioassay was employed of the type set forth in detail in Gospodarowicz et al., J. Cell Biol., 122, 323-333 (1985), using BAAE cells.
For each test, an initial cell density of between about 0.3-0.5×10^4 cells per well was established in 24-miniwell plates. After 6-8 hours, the cells in each well were treated with a challenge dose of bFGF in the absence, or presence to a varying concentration, of a synthetic FGF antagonist. The precise treatment was repeated 48 hours later. On the fifth day, the cells were digested with trypsin, and the total number of cells in each well was determined using a Coulter particle counter.

[2] = tested on: 3T3 cells; test: [^3 H]-thymidine incorporation in serum-starved 3T3 cells challenged with bFGF; type: cell-based; settings: 24 hours with peptide and bFGF challenge, then 5 hours label, result in words
Protocol: The synthesis of bFGF(97-120)-NH2 having the formula: H-Arg-Leu-Glu-Ser-Asn-Asn-Tyr-Asn-Thr-Tyr-Arg-Ser-Arg-Lys-Tyr-Ser-Ser-Trp- Tyr-Val-Ala-Lys-Arg-NH2 is conducted in a stepwise manner using a Beckman 990 synthesizer and an MBHA resin in the manner described in Example I. The peptide is judged to be substantially pure using TLC and HPLC. Testing is carried out using a culture of serum-starved 3T3 cells which are incubated for 24 hours with the bFGF peptide fragment and a challenge dose of bFGF and then incubated for 5 hours with radioactive [^3 H]-thymidine to determine whether the fragment will inhibit the incorporation of [^3 H]-DNA in the cell line which will be indicative of its inhibiting cell growth.

[3] = tested on: FGF receptors of BHK cells; settings: result in words
[4] = Binding to [^3 H]-heparin; settings: result in words

H-HPDGRVDGVREKSDPH-NH2 [bFGF(35-50)-NH2, H-His-Pro-Asp-Gly-Arg-Val-Asp-Gly-Val-Arg-Glu-Lys-Ser-Asp-Pro-His-NH2]
antagonist activity to both basal and bFGF-stimulated endothelial cell growth ([1]; result in words): full antagonist activity

H-LRIHPDGRVDGVREKSDPHIKL-NH2 [bFGF(32-53)-NHz, H-Leu-Arg-Ile-His-Pro-Asp-Gly-Arg-Val-Asp-Gly-Val-Arg-Glu-Lys-Ser-Asp-Pro- His-Ile-Lys-Leu-NH2]
antagonist activity to both basal and bFGF-stimulated endothelial cell growth ([1]; result in words): weak antagonist activity

H-SNNYNTYRSRKYSSWYVALKR-NH2 [bFGF(100-120)-NH2, H-Ser-Asn-Asn-Tyr-Asn-Thr-Tyr-Arg-Ser-Arg-Lys-Tyr-Ser-Ser-Trp-Tyr-Val-Ala- Leu-Lys-Arg-NH2]
inhibition of bFGF-induced mitosis ([^3 H]-thymidine incorporation) [2]: very good inhibition | inhibition of bFGF binding to BHK cells (receptor) [3]: very strongly inhibits | binding of the peptide to heparin [4]: binds itself to heparin

H-YNTYRSRKYSSWYVALKRTGQYKLGPKTGPGQKAILFLPMSAKS-NH2 [bFGF(103-146)-NH2, H-Tyr-Asn-Thr-Tyr-Arg-Ser-Arg-Lys-Tyr-Ser-Ser-Trp-Tyr-Val-Ala-Leu-Lys-Arg- Thr-Gly-Gln-Tyr-Lys-Leu-Gly -Pro-Lys-Thr-Gly-Pro-Gly-Gln-Lys-Ala-Ile-Leu-Phe-Leu-Pro-Met-Ser-Ala-Lys-Ser-NH2]
inhibition of bFGF binding to BHK cells (receptor) [3]: very strongly inhibits | inhibition of FGF binding to heparin [4]: very strongly inhibits

H-YCKNGGFFLRIHPDGRVDGVREKSDPHIKLQLQAEERGVVSIKGV-NH2 [bFGF(24-68)-NH2]
ID50 [1]: about 5 micromolar | cell population reduced, bFGF-stimulated cell growth ([1]; bFGF-stimulated cell growth, peptide about 100 μg/ml): about 92% | cell population reduced, basal cell growth ([1]; basal cell growth, peptide about 100 μg/ml): about 84% | antagonist activity to both basal and bFGF-stimulated endothelial cell growth ([1]; result in words): full antagonist activity | binding of the peptide to heparin [4]: strong affinity

H-Cys-Lys-Asn-Gly-Gly-Phe-Phe-T-Arg-Ile-His-Pro-Asp-NH2 [bFGF(25-37)-NH2]
binding affinity for BHK cells [3]: fair affinity | antagonist activity to basal endothelial cell growth ([1]; basal growth only, result in words): some antagonist activity | binding of the peptide to heparin [4]: fairly strong binding affinity

YKNGGFFLRIHPDGRVDGVREKSDPHIKLQLQAEERGVVSIKGV-NH2 [[Tyr^25]-bFGF(25-68)-NH2]
binding affinity for BHK cells [3]: very strong binding affinity | reducing cell population, bFGF-stimulated endothelial cell growth [1]: about 95% | reducing cell population, basal endothelial cell growth [1]: about 86% | antagonist activity to both basal and bFGF-stimulated endothelial cell growth ([1]; result in words): full antagonist activity | binding of the peptide to heparin [4]: very strong binding affinity

H-LRIHPDGR-NH2 [bFGF(32-39)-NHz, H-Leu-Arg-Ile-His-Pro-Asp-Gly-Arg-NH2]
reducing cell population, bFGF-stimulated endothelial cell growth [1]: about 11% | reducing cell population, basal endothelial cell growth [1]: about 37% | antagonist activity to both basal and bFGF-stimulated endothelial cell growth ([1]; result in words): full antagonist activity

CC[C@H](C)[C@H](NC(=O)[C@H](CO)NC(=O)[C@@H](NC(=O)[C@@H](NC(=O)CNC(=O)[C@H](CCCNC(=N)N)NC(=O)[C@H](CCC(=O)O)NC(=O)[C@H](CCC(=O)O)NC(=O)[C@H](C)NC(=O)[C@H](CCC(N)=O)NC(=O)[C@H](CC(C)C)NC(=O)[C@H](CCC(N)=O)NC(=O)[C@H](CC(C)C)NC(=O)[C@H](CCCCN)NC(=O)[C@@H](NC(=O)[C@H](Cc1c[nH]cn1)NC(=O)[C@@H]1CCCN1C(=O)[C@H](CC(=O)O)NC(=O)[C@H](CO)NC(=O)[C@H](CCCCN)NC(=O)[C@H](CCC(=O)O)NC(=O)[C@H](CCCNC(=N)N)NC(=O)[C@@H](NC(=O)CN(C)C(=O)[C@H](CC(=O)O)NC(=O)[C@@H](NC(=O)[C@H](CCCNC(=N)N)NC(=O)CNC(=O)[C@H](CC(=O)O)NC(=O)[C@@H]1CCCN1)C(C)C)C(C)C)[C@@H](C)CC)C(C)C)C(C)C)C(=O)N[C@@H](CCCCN)C(=O)NCC(=O)N[C@H](C(N)=O)C(C)C [[Sar42]-bFGF(36-68)-NH2] (H-PDGRVD[Sar]VREKSDPHIKLQLQAEERGVVSIKGV-NH2)
antagonist activity to both basal and bFGF-stimulated endothelial cell growth ([1]; result in words): full antagonist activity

YNTYRSRKYSSWYVALKR-NH2 [bFGF(103-120)-NH2, H-Tyr-Asn-Thr-Tyr-Arg-Ser-Arg-Lys-Tyr-Ser-Ser-Trp-Tyr-Val-Ala-Leu-Lys-Arg- NH2]
inhibition of bFGF-induced mitosis ([^3 H]-thymidine incorporation) [2]: very good inhibition | inhibition of bFGF binding to BHK cells (receptor) [3]: very strongly inhibits | binding of the peptide to heparin [4]: binds to heparin

H-YRSRKYSSWYVAL-NH2 [bFGF(106-118)-NH2, H-Tyr-Arg-Ser-Arg-Lys-Tyr-Ser-Ser-Trp-Tyr-Val-Ala-Leu-NH2]
inhibition of bFGF binding to BHK cells (receptor) [3]: inhibits binding | antagonist activity in mitogenic assays ([1]; result in words): partial antagonist activity

H-YRSRKYSSWFVALKR-NH2 [[Phe^115]-bFGF(106-120)-NH2, H-Tyr-Arg-Ser-Arg-Lys-Tyr-Ser-Ser-Trp-Phe-Val-Ala-Leu-Lys-Arg-NH2]
inhibition of bFGF-induced mitosis ([^3 H]-thymidine incorporation) [2]: very good inhibition | inhibition of bFGF binding to BHK cells (receptor) [3]: very strongly inhibits

H-FFFERLESNNYNTYRSRKYSSWYVALKR-NH2 [bFGF(93-120)-NH2, H-Phe-Phe-Phe-Glu-Arg-Leu-Glu-Ser-Asn-Asn-Tyr-Asn-Thr-Tyr-Arg-Ser-Arg-Lys- Tyr-Ser-Ser-Trp-Tyr-Val-Ala Leu-Lys-Arg-NH2]
inhibition of bFGF binding to BHK cells (receptor) [3]: inhibits the binding | antagonist activity to both basal and bFGF-stimulated endothelial cell growth ([1]; result in words): full antagonist activity | binding of the peptide to heparin [4]: binds to heparin

H-YNTYRSRKYSAWYVALKRTGQYKLGPKTGPGQKAILFLPMSAKS-NH2 [[Ala^113]-bFGF(103-146)-NH2]
inhibition of bFGF binding to BHK cells (receptor) [3]: very strongly inhibits

H-YRSRKYSSMYVALKR-NH2 [[Met^114]-bFGF(106-120)-NH2, H-Tyr-Arg-Ser-Arg-Lys-Tyr-Ser-Ser-Met-Tyr-Val-Ala-Leu-Lys-Arg-NH2]
inhibition of bFGF-induced mitosis ([^3 H]-thymidine incorporation) [2]: very good inhibition | inhibition of bFGF binding to BHK cells (receptor) [3]: very strongly inhibits

H-YFLRIHPDGRVDGVREKSDPY-OH [[Tyr30,50]-bFGF(30-50)-OH, H-Tyr-Phe-Leu-Arg-Ile-His-Pro-Asp-Gly-Arg-Val-Asp-Gly-Val-Arg-Glu-Lys-Ser- Asp-Pro-Tyr-OH]
antagonist activity to both basal and bFGF-stimulated endothelial cell growth ([1]; result in words): full antagonist activity

H-FFLRIHPDGRVDGVREKSDP-NH2 [bFGF(30-49)-NH2, H-Phe-Phe-Leu-Arg-Ile-His-Pro-Asp-Gly-Arg-Val-Asp-Gly-Val-Arg-Glu-Lys-Ser- Asp-Pro-NH2]
antagonist activity to both basal and bFGF-stimulated endothelial cell growth ([1]; result in words): full antagonist activity

H-PDGRVDAVREKSDPHIKLQLQAEERGVVSIKGV-NH2 [[Ala^42]-bFGF(36-68)-NH2, H-Pro-Asp-Gly-Arg-Val-Asp-Ala-Val-Arg-Glu-Lys-Ser-Asp-Pro-His-Ile-Lys-Leu- Gln-Leu-Gln-Ala-Glu Glu-Arg-Gly-Val-Val-Ser-Ile-Lys-Gly-Val-NH2]
antagonist activity to both basal and bFGF-stimulated endothelial cell growth ([1]; result in words): full antagonist activity

YCKNGGFFLRIHPDGRVDGVREKADPHIKLQLQAEERGVV-NH2 [[Ala^47]-bFGF(24-63)-NH2]
antagonist activity to both basal and bFGF-stimulated endothelial cell growth ([1]; result in words): full antagonist activity

H-HPDGRVDAVREKTDPH-NH2 [[Ala^42, Thr^47]-bFGF(35-50)-NH2, H-His-Pro-Asp-Gly-Arg-Val-Asp-Ala-Val-Arg-Glu-Lys-Thr-Asp-Pro-His-NH2]
antagonist activity to both basal and bFGF-stimulated endothelial cell growth ([1]; result in words): full antagonist activity

H-FFLRIHPDGRVDGVREKSDPY-NH2 [[Tyr^50]-bFGF(30-50)-NHz, H-Phe-Phe-Leu-Arg-Ile-His-Pro-Asp-Gly-Arg-Val-Asp-Gly-Val-Arg-Glu-Lys-Ser- Asp-Pro-Tyr-NH2]
reducing cell population, bFGF-stimulated endothelial cell growth [1]: about 6% | reducing cell population, basal endothelial cell growth [1]: about 19% | antagonist activity to both basal and bFGF-stimulated endothelial cell growth ([1]; result in words): full antagonist activity

YCKNGGFFLRIHPDGRVDGVREKSDPHIKLQLQAEERGVV-NH2 [bFGF(24-63)-NH2, H-Tyr-Cys-Lys-Asn-Gly-Gly-Phe-Phe-Leu-Arg-Ile-His-Pro-Asp-Gly-Arg-Val-Asp- Gly-Val-Arg-Glu-LysSer-Asp-Pro-His-Ile-Lys-Leu-Gln-T-Gln-Ala -Glu-Glu-Arg-Gly-Val-Val-NH2]
antagonist activity to both basal and bFGF-stimulated endothelial cell growth ([1]; result in words): full antagonist activity

YCKNGGFFLRIHPDGRVDGVREKSDPHIKLQLQAEERGVVSIKGV [bFGF(24-68)-OH]
ID50 [1]: about 5 micromolar

N=C(N)NCCC[C@H](NC(=O)CNC(=O)[C@H](CC(=O)O)NC(=O)[C@@H]1CCCN1)C(N)=O [bFGF(36-39)-NH2, H-Pro-Asp-Gly-Arg-NH2] (H-PDGR-NH2)
ID50 [1]: 30 to 50 µM | reducing cell population, bFGF-stimulated endothelial cell growth [1]: about 54% | reducing cell population, basal endothelial cell growth [1]: about 37% | antagonist activity to both basal and bFGF-stimulated endothelial cell growth ([1]; result in words): full antagonist activity
